Results from US20030027820A1, “Method for treating fibrotic diseases or other indications V” (Alteon, Inc., priority 2001, published 2003).
Counter-ions that a name gives are not always drawn.

Columns and labels:
[1] = tested on: TGFbeta; experiment: In situ hybridization studies, TGFbeta; assay type: in vivo
Source text: (§1) Cardiovascular risk correlates more closely with the systolic and the pulse pressure than with the diastolic pressure. In diabetic patients, the cardiovascular risk profile of diabetic patients is strongly correlated to duration of diabetes, glycemic control and blood pressure. Structural matrix proteins contribute to the function of vessels and the heart, and changes in the physical behavior of cardiovascular walls are believed to be important determinants of circulatory function. In elderly individuals, the loss of compliance in the aorta leads to isolated systolic hypertension, which in turn expands the arterial wall and thereby diminishes the dynamic range of elasticity. Loss of compliance also results in the development of left ventricular hypertrophy.

[2] = Phase IIa clinical trial; assay type: in vivo, human
Source text: When the heart pumps blood into the vascular system, the ability of the arteries to expand helps to push blood through the body. When arteries become stiff, as they do in the natural process of aging, the ability of the arteries to expand is diminished and also has consequences for the heart. The heart has to work harder to pump the blood into the stiff arteries, and eventually hypertrophies (enlarges in size) to accomplish this. A hypertrophied heart is an inefficient pump, and is one of the disorders that leads to congestive heart failure. […] The potential clinical benefit of this is to lessen the effort that the heart must expend to push blood throughout the body. The effect is also believed to contribute to preventing hypertrophy and subsequent inefficiency of the heart, which inefficiency would contribute to congestive heart failure.
Atherosclerosis is a disease that involves deposition of blood lipids in plaque in the arteries throughout the body. In coronary arteries, accumulation of plaque progressively leads to reduced coronary flow, with occlusion of the arteries causing focal death of cardiac tissue (myocardial infarction, heart attack). If the amount of tissue that dies is large enough, death ensures. […] Reducing local deposits of plaque should eventually lessen the risk of myocardial infarction and death due to heart attacks.
Pulse pressure is the difference between systolic and diastolic blood pressure. In a young human, systolic pressure is typically 120 mm Hg and diastolic pressure is 80 mm Hg, resulting in a pulse pressure of 40 mm Hg. With age, in many individuals pulse pressure increases, largely due to the increase in systolic pressure that results from stiff vessel disease. In individuals with pulse pressure greater than 60 mm Hg there is an increased risk of death from cardiovascular morbidities.

[3] = tested on: collagen in cardiovascular tissues; experiment: Mass of collagen in cardiovascular tissues after treatment; assay type: in vivo
Source text: as §1

[4] = Dog model for diabetes, ventricular elasticity; assay type: in vivo
Source text: as §1

[5] = In vivo studies of vascular stiffening in rodents, canines and primates
Source text: as §1

[6] = tested on: Type IV collagen; experiment: In situ hybridization studies, Type IV collagen; assay type: in vivo
Source text: as §1

Compound: Cc1sc[n+](CC(=O)c2ccccc2)c1C [3-[2-phenyl-2-oxoethyl]-4,5-dimethyl-thiazolium salt]
- expression of TGFbeta [1]: reduces the expression of both Type IV collagen and TGFbeta
- stiffness of arteries, as measured by the ratio of stroke volume (ml) to pulse pressure (mm Hg) ([2]; Phase IIa clinical trial): showed an ability to reverse the stiffness of arteries
- amount of circulating triglycerides (lipids) ([2]; Phase IIa trial): increased the amount of circulating triglycerides
- systolic blood pressure ([2]; Phase IIa trial, believed to be the primary cause of the pulse pressure decrease): lowering the systolic blood pressure
- pulse pressure ([2]; Phase IIa trial, elderly patients with pulse pressures greater than 60 mm Hg): reduced pulse pressure in elderly patients with pulse pressures greater than 60 mm Hg in a statistically significant manner
- mass of collagen in cardiovascular tissues [3]: reduction in the mass of collagen in cardiovascular tissues
- end diastolic pressure (indicator of ventricular elasticity) [4]: returned to a value at about the mid-point between the disease impaired value and the value for control dogs
- end diastolic volume (indicator of ventricular elasticity) [4]: returned to a value at about the mid-point between the disease impaired value and the value for control dogs
- vascular stiffening [5]: substantially ameliorating vascular stiffening
- expression of Type IV collagen [6]: reduces the expression of both Type IV collagen and TGFbeta
